Patent publication US20040214897A1, “Uses for 2-amino-2-propane-1,3-diols” (priority 2001, published 2004)

Experiments:
[1] = system: yeast cells; settings: cited from earlier work
[2] = system: several yeast strains; settings: background statement; cited from earlier work
[3] = system: yeast strains JK9-3dα, MH272-1da and MH272-1da/α; test: Yeast growth on media containing the compound, compared with medium without compound; assay type: cell-based, Saccharomyces Cerevisie; settings: for antifungal activity on Saccharomyces Cerevisie: general statement
Method: (§1) The compound, e.g. FTY720, is dissolved in distilled water to be 10 mM, the resulting stock solution is kept at 4° C. and diluted to the appropriated concentrations with medium used for yeast culture. Standard laboratory yeast strain in this case derivatives of JK9-3d (a, alpha and diploid) are plated on to media containing the varying concentrations of the compound to be tested and their growth are compared to that in medium without the compound. Cultivation and maintenance of cells are carried out in YEPD medium (Difco) or synthetic medium (SD). The growth of both yeast strains JK9-3dα, MH272-1da and MH272-1da/α is inhibited by a compound of formula I, e.g. FTY720, at 30 μM in the YPED solid medium at 30° C. or in minimal medium at 19° C.

[4] = system: peripheral blood lymphocytes (PBL); settings: background statement; cited from earlier work
[5] = system: JK9-3dα transformants; test: FTY720 resistance of JK9-3dα transformants carrying plasmid-borne genes; assay type: cell-based, Saccharomyces Cerevisie
Description: If the growth sensitivity of these yeast strains is due to inhibition of specific functional protein targets in the cells, such inhibition could be relieved by overexpressing such a function through introduction of multiple genetic copies of such function. Accordingly the FTY720 sensitive strain JK9-3dα has been transformed with yeast genomic DNA libraries cloned in high copy plasmid (2 μm) URA3 selectable using Yeast Transformation System (Clontech). FTY720-resistant transformants are selected on synthetic medium lacking uracil in the presence of 30 μM of FTY720. The total number of URA3+transformants is >20,000. The first selection Is performed at 19° C. because even the parent yeast strain JK9-3dα is resistant to FTY720 in synthetic medium at 30° C. After the first selection for resistance, FTY720-resistant growth phenotype of transformants is reconfirmed by restreaking individual colonies on to medium with the compound. Plasmid which conferred resistance to FTY720 are recovered according to standard methods, amplified in E. coli and reintroduced into JK9-3da for the confirmation of FTY720 resistance. The DNA fragments which conferred FTY720 resistance are isolated to determine sequence of both terminii of insert DNA and the DNA sequence is compared with Saccharomyces Genome Database. Then, the responsible single genes for the FTY720 resistance are further identified from the DNA fragments due to their common presence in different fragments and by using specific restriction enzymes to subclone them into yeast plasmid vector as shorter fragments (Genes Vap1, UBP5, UBP11 and Caj1 are identified by this method).
From each fragment or resistance plasmid, single responsible genes, which overcome the anti-fungal effects of this compound at the increased copy number, are identified by subcloning using restriction enzymes. One is amino acid transporter VAP1, the others are a putative deubiquitinating enzyme UBP11 and UBP5. The last one is CAJ1 (heat shock protein).
The glutamine transporter GNP1 gene (38) is PCR amplified out of this fragment derived from the FTY720 resistant mutant or parent wild-type genomic DNA, then cloned into the same plasmid vector pRS416.
JK9-3dα wild-type cells are transformed with the yeast genomic DNA library constructed from FTY720 resistant dominant mutant in the low-copy-number vector pRS416. FTY720-resistant transformants are selected in SD medium in the presence of 30 μM of FTY720 as mentioned above. Plasmid inserts are sequenced and gene is identified as GNP1.

[6] = system: Bul1-disrupted yeast; test: Sensitivity of gene-disrupted yeast strains to FTY720; assay type: cell-based, Saccharomyces Cerevisie
Method: as §1, with “(SD).” for “(SD). The growth of both yeast strains JK9-3dα, MH272-1da and MH272-1da/α is inhibited by a compound of formula I, e.g. FTY720, at 30 μM in the YPED solid medium at 30° C. or in minimal medium at 19° C.”
Only one genomic DNA fragment in pRS416 confers sensitivity to FTY720. This DNA contains 4 intact genes (NRC1, Bul1, RCE1, DSK2). […] Intact Bul1 gene in low-copy-number plasmid confers sensitvity to FTY720 in the resistant recessive mutants, implying that the mutation happens in Bul1 gene in the recessive mutant yeast.

[7] = system: prototrophic derivatives of JK9-3dα; test: Growth sensitivity of prototrophic derivatives of JK9-3dα to FTY720; assay type: cell-based, Saccharomyces Cerevisie
Method: as §1, with “(SD).” for “(SD). The growth of both yeast strains JK9-3dα, MH272-1da and MH272-1da/α is inhibited by a compound of formula I, e.g. FTY720, at 30 μM in the YPED solid medium at 30° C. or in minimal medium at 19° C.”
If so, yeast that are able to synthesize amino acids might have a growth advantage in the presence of FTY720 compared with isogenic auxotrophic yeast that require amino acid import from the medium to grow. Therefore, the influence of nutrient auxotrophies present in JK9-3dα (trp1 his4 leu2 ura3), which are used to identify target molecules of FTY720, on the sensitivity to this compound is tested. In contrast to the parental auxotrophic strain, fully prototrophic TRP1 HIS4 LEU2 URA3 derivative of JK9-3dα is resistant to 30 μM of FTY720. […] It therefore seems that the molecular targets and pathways other than that of 30 μM are involved in the effects of 100 μM of FTY720. Then, in order to identify which nutrient transport is inhibited by 30 μM of FTY720, prototrophic strain for each nutrient are constructed in JK9-3dα.

[8] = system: Rsp5 mutant yeast; test: Sensitivity of Rsp5 mutant to FTY720; assay type: cell-based, Saccharomyces Cerevisie; settings: 30 μM
Method: as §1, with “(SD).” for “(SD). The growth of both yeast strains JK9-3dα, MH272-1da and MH272-1da/α is inhibited by a compound of formula I, e.g. FTY720, at 30 μM in the YPED solid medium at 30° C. or in minimal medium at 19° C.”
In order to clarify the role of the ubiquitin pathway in FTY720 action, the sensitivity of Rsp5 (Bul1 binding ubiquitin ligase) mutant to FTY720 is tested. Rsp5 mutant, in which Rsp5 expression level is reduced to less than 10% of wild-type due to the Ty1 transposed insertion in the promoter, is used in this study, since the complete disruption of Rsp5 gene is lethal. This Rsp5 mutant is resistant to 30 μM of FTY720 like Bul1 disrupted-yeast.

CCCCCCCCCCCCCC[C@@H](O)[C@@H](O)[C@@H](N)CO [PHS, phytoshingosine]
tryptophan uptake [1]: diminishes tryptophan uptake

cyclosporin A [CsA]
growth of several yeast strains [2]: potently inhibit

NC(CO)(CO)CCc1ccc(C(=O)CCCCc2ccccc2)cc1 [Compound Y, 2-amino-2-{2-[4-(1-oxo-5-phenylpentyl)phenyl]ethyl}propane-1,3-diol]
antifungal activity on Saccharomyces Cerevisie [3]: exhibits an antifungal activity
peripheral blood lymphocytes (PBL) in vivo [4]: rapid and marked reduction

CCCCCCCCc1ccc(CCC(N)(CO)CO)cc1 [FTY720, 2-Amino-2-[2-(4-octylphenyl)ethyl]propane-1,3-diol]
growth of yeast strains JK9-3dα, MH272-1da and MH272-1da/α ([3]; 30 μM, YPED solid medium at 30° C. or minimal medium at 19° C.): inhibited
antifungal activity on Saccharomyces Cerevisie [3]: exhibits an antifungal activity
sensitivity of parent yeast strain JK9-3dα ([3]; synthetic medium at 30° C.): resistant
anti-fungal effect with wild type TAT2 gene in low-copy number-plasmid [5]: overcomes the anti-fungal effects
growth-inhibitory effect with VAP1, UBP11, UBP5 or CAJ1 in high-copy-number plasmid ([5]; 30 μM, JK9-3dα): overcome the growth-inhibitory effects
anti-fungal effect with mutant-derived GNP1 in low-copy-number plasmid ([5]; 30 μM, JK9-3dα transformants, pRS416): confers resistance
growth inhibition with multiple copies of VAP1 ([5]; 100 μM): fail to overcome the growth inhibition
anti-fungal effect with wild-type GNP1 gene in low-copy-number plasmid ([5]; JK9-3dα transformants, pRS416): not inhibited
anti-fungal effect with VAP1 (and TAP2) in low-copy-number plasmid ([5]; genes from mutant-derived and wild-type genomic DNA libraries): confer FTY720 resistance
sensitivity of Bul1-disrupted yeast after introduction of Bul1 gene in low-copy-number plasmid pRS416 [6]: reverses the phenotype from resistance to sensitivity
sensitivity of Bul1-disrupted yeast ([6]; 30 μM): confers resistance
peripheral blood lymphocytes (PBL) in vivo [4]: rapid and marked reduction
sensitivity of fully prototrophic TRP1 HIS4 LEU2 URA3 derivative of JK9-3dα ([7]; 30 μM): resistant
sensitivity of single TRP1, HIS4, LEU2 or URA3 prototrophic strains ([7]; 30 μM, JK9-3dα background): Neither of each TRP1, HIS4, LEU2 or URA3 prototrophic strain is resistant
sensitivity of strain with both TRP1 and LEU2 ([7]; 30 μM, JK9-3dα background): sufficient to confer resistance
sensitivity of prototrophic yeast ([7]; 100 μM): still sensitive
sensitivity of Rsp5 mutant (Rsp5 expression less than 10% of wild-type) [8]: resistant
